Experimental data published in patent US12697313B2, “Methods of treating anemia using formoterol or a pharmaceutically acceptable salt thereof” (Dana-Farber Cancer Institute, Inc., priority 2022, dated 2026).
“Also recorded” adds a separate entry of the source.

Columns and labels:
[1] = system: PHZ-induced lethal hemolytic anemia mice; assay: PHZ-mediated lethal hemolytic anemia, FF i.p.; type: in vivo; conditions: for body weights: 0.1/0.3 mg/kg
Procedure: To this end, 10-12 week old male C57BL/6J mice were first treated with a single lethal dose of 150 mg/kg PHZ followed by daily i.p. injections of either vehicle or 0.1/0.3 mg/kg FF. […] All control mice (n=5) were moribund and died by 3 days of lethal PHZ dose, whereas 3-4 mice in 0.1/0.3 mg/kg FF treatment groups are still surviving post 2 weeks of lethal dose (FIG. 42A). […] FF injections were stopped after 7 days of lethal PHZ treatment and it was observed that the body weights of mice were held steady (FIG. 42B). The body weights and survival of these mice are being monitored daily. This unexpected finding prompted us to repeat this lethal hemolytic anemia model in the female mice. […] The FF treatment lasted for 7 days after lethal PHZ dose and the body weights and survival of these mice are being monitored daily.

[2] = system: MDS patient-derived BM progenitors; assay: Semi-solid methylcellulose culture of MDS patient-derived BM progenitors; type: cell-based, human
Source text: (§1) These findings prompted further testing to determine whether administration of FF in MDS patient-derived bone marrow (BM) samples improves erythroid differentiation in an ex vivo setting. To explore this, cells isolated from BM aspirates of de-identified MDS patients were procured. Next, the MDS patient-derived BM cells were placed in liquid erythroid differentiation culture, as previously described (Khajuria et al. (2018) Cell 173: 90-103), with or without FF treatment. […] To further validate this observation, the impact of FF from another vendor (Sigma) was tested on MDS patient-derived cells. […] Next, CD34+ progenitors were FACS-sorted from the MDS patient-derived BM aspirates and seeded in semi-solid methylcellulose culture media with vehicle (DMSO) or FF treatment. […] Therefore, the FDA-approved drug formoterol fumarate could be repurposed to reverse anemia in a range of hematological disorders.
After genome editing, primary human HSPCs were washed twice with 1× PBS and mixed with semi-solid methylcellulose medium (H4034 StemCell Technologies) by brief vortexing. Cells were plated at a density of 2000 per well in a 6-well plate followed by incubation in a humidified chamber at 37° C. for 14 days. Imaging of the colonies was performed using EVOS M5000 Imaging system® (ThermoFisher Scientific). […]

[3] = system: PHZ-induced lethal hemolytic anemia mice; assay: PHZ lethal dose (135 mg/kg), FF oral gavage; type: in vivo; conditions: 0.1/0.5 mg/kg o.g.; PHZ 135 mg/kg; FIG. 54
Source text: Log-rank (Mantel-Cox) test. n=5 mice per group. All comparisons were done w.r.t. vehicle (DMSO) treated controls.

[4] = system: phenylhydrazine (PHZ)-treated mice; assay: FF oral gavage in PHZ-treated mice at sub-lethal dose of 60 mg/kg; type: in vivo
naive wild-type mice = assay: FF in naive wild-type mice without PHZ stress (FIG. 62 setup); type: in vivo; conditions: for % change in body weights: FIG. 63
[5] = system: MDS patient-derived bone marrow cells; assay: Liquid erythroid differentiation culture of MDS patient-derived bone marrow cells (ex vivo); type: cell-based, human; conditions: for erythroid differentiation (CD235a): n=40 MDS patients
Source text: as §1
CD34+ primary human hematopoietic stem and progenitor cells (HSPCs) were obtained from Fred-Hutchinson Cancer Research center, Seattle, USA and cultured, as previously described. Formoterol fumarate was purchased from Selleckchem (#S2020) and Sigma (#F9552), dissolved (in DMSO) and stored as per manufacturer's instructions, and used at the final working concentrations as indicated. Frozen BM aspirates from de-identified MDS patients were obtained using our IRB approved protocol (#21-632) from the Pasquarello tissue bank at DFCI.

wild-type mice = assay: FF oral gavage in wild-type mice at steady-state; type: in vivo
Source text: N=5 mice per group. All comparisons were done w.r.t. vehicle treated (DMSO) controls.

[6] = female, PHZ 120 mg/kg, FF 0.1 mg/kg, n=5
[7] = female, PHZ 120 mg/kg, FF 0.3 mg/kg, n=5
[8] = male, PHZ 150 mg/kg, FF 0.1 mg/kg, n=5
[9] = male, PHZ 150 mg/kg, FF 0.3 mg/kg, n=5
[10] = 14 days of daily o.g., PHZ 60 mg/kg, FIG. 59

SMILES: COc1ccc(C[C@@H](C)NC[C@H](O)c2ccc(O)c(NC=O)c2)cc1.O=C(O)/C=C/C(=O)O [FF, (E)-but-2-enedioic acid;N-[2-hydroxy-5-[(1R)-1-hydroxy-2-[[(2R)-1-(4-methoxyphenyl)propan-2-yl]amino]ethyl]phenyl]formamide]
- survival (Kaplan-Meier) ([1]; female mice, PHZ 120 mg/kg, FF 0.1/0.3 mg/kg, FIG. 42C): provided prominent survival benefits
- body weights ([1]; female, PHZ 120 mg/kg, FIG. 42D): similarly revived body weights; also recorded: steadily increases body weights of female mice
- mice died on day 2 [1, 6]: 1 mouse
- mice still surviving post lethal PHZ dose [1, 6]: 4 mice
- mice died on day 2 [1, 7]: 2 mice
- mice still surviving post lethal PHZ dose [1, 7]: 3 mice
- survival (Kaplan-Meier) ([1]; male mice, PHZ 150 mg/kg, FF 0.1/0.3 mg/kg daily i.p., FIG. 42A): produced striking survival benefits
- mice still surviving post 2 weeks of lethal dose ([1]; male, PHZ 150 mg/kg, 0.1/0.3 mg/kg FF groups, n=5): 3-4 mice
- body weights ([1]; male, PHZ 150 mg/kg, FIG. 42B): produced remarkable revival in body weights; also recorded: steadily increases body weights of male mice
- mice died on day 2 [1, 8]: 2 mice
- mice still surviving post lethal PHZ dose [1, 8]: 3 mice
- mice died on day 2 [1, 9]: 1 mouse
- mice still surviving post lethal PHZ dose [1, 9]: 4 mice
- viability, myelopoiesis (CFU-GM), megakaryopoiesis (CFU-Mk) ([2]; FIG. 11D): produced insignificant effects on the viability, myeloid and megakaryocytic differentiation; also recorded: does not affect viability, myelopoiesis (CFU-GM) or megakaryopoiesis (CFU-Mk)
- erythroid progenitors BFU-E and CFU-E ([2]; n=23 MDS patients, vs DMSO, FIG. 11A-11C): significantly boosted both BFU-E and CFU-E formation; also recorded: enhances differentiation of erythroid progenitors in MDS patient-derived bone marrow cells
- survival (Kaplan-Meier) [3]: confers striking survival benefits
- granulocyte monocyte progenitors (GMP) ([4]; 14 days of daily o.g., FIG. 60): does not affect granulocyte monocyte progenitors (GMP)
- megakaryocytic progenitors (MkP) ([4]; 14 days of daily o.g., FIG. 60): increases megakaryocytic progenitors (MkP)
- mitochondrial membrane potential (TMRE staining) in BMPs [4, 10]: increases viability and mitochondrial membrane potential
- viability of BMPs [4, 10]: increases viability and mitochondrial membrane potential
- body weights ([4]; o.g., PHZ 60 mg/kg, FIG. 56): does not affect body weights
- RBC parameters (HCT % and Hb) in peripheral blood ([4]; o.g., PHZ 60 mg/kg, FIG. 57): increases RBC parameters
- WBC and platelets in peripheral blood ([4]; o.g., PHZ 60 mg/kg, FIG. 58): does not affect WBC and platelets
- % change in body weights (naive wild-type mice; 0.1/0.3/0.5 mg/kg): increases body weights
- viability of BM progenitors (naive wild-type mice; 0.1/0.3/0.5 mg/kg, FIG. 67A): substantially increases
- LS-K cells in the BM (naive wild-type mice; 0.1/0.3/0.5 mg/kg, FIG. 67B): substantially increases
- MEP and MkP in BM (naive wild-type mice; 0.1/0.3/0.5 mg/kg, FIG. 68A-68B): significantly elevates megakaryocyte erythroid progenitors (MEP) and megakaryocytic progenitors (MkP)
- expression of erythroid genes EPOR, ASXL1, NFE2 in sorted erythroid progenitors (naive wild-type mice; 0.1/0.3/0.5 mg/kg, FIG. 70A-70C): substantially increases the expression of erythroid genes
- expression of ADRB2 in sorted erythroid progenitors (naive wild-type mice; 0.1/0.3/0.5 mg/kg, FIG. 70D): does not influence the expression of β2-AR-encoding gene ADRB2
- % change in body weights (naive wild-type mice; 0.1 and 0.3 mg/kg groups): did not show statistical significance
- HCT% (naive wild-type mice; 0.1 and 0.5 mg/kg groups, FIG. 64C): did not show statistical significance
- RBC parameters (RBC numbers, Hb, HCT %) in peripheral blood (naive wild-type mice; FIG. 64): enhances and sustains RBC parameters
- WBC numbers and platelet counts (naive wild-type mice; FIG. 65A, 65C): does not influence
- monocyte counts in peripheral blood (naive wild-type mice; FIG. 65B): modestly impacts monocyte counts
- mitochondrial biogenesis in BMPs (MitoTracker staining) (naive wild-type mice; FIG. 66A): enhances mitochondrial biogenesis
- mitochondrial membrane potential in BMPs (TMRE staining) (naive wild-type mice; FIG. 66B): enhances mitochondrial membrane potential
- mitochondrial superoxide production in BMPs (MitoSox staining) (naive wild-type mice; FIG. 66C): significantly reduces mitochondrial superoxide production
- myelopoiesis/megakaryopoiesis ([5]; 40 MDS patient-derived cells, FIG. 9): does not affect myelopoiesis/megakaryopoiesis
- erythroid differentiation (CD235a) ([5]; FF from Selleckchem, FIG. 8A): significantly enhanced erythroid differentiation in BM cells in the majority of MDS patients; also recorded: enhances erythroid differentiation in MDS patient-derived bone marrow cells
- erythroid differentiation (CD235a) ([5]; FF from Sigma, FIG. 8B): boosted erythropoiesis in the majority of MDS patients; also recorded: enhances erythroid differentiation in MDS patient-derived bone marrow cells
- RBC parameters (HCT %, RBC numbers, Hb) in peripheral blood (wild-type mice; 14 days of daily o.g., FIG. 48): increases RBC parameters
- WBCs, monocytes and platelets in peripheral blood (wild-type mice; 14 days of daily o.g., FIG. 49): does not affect WBC parameters
- mitochondrial membrane potential (TMRE staining) in BMPs (wild-type mice; 14 days of daily o.g., FIG. 50): increases viability and mitochondrial membrane potential
- viability of bone marrow progenitors (BMPs) (wild-type mice; 14 days of daily o.g., FIG. 50): increases viability and mitochondrial membrane potential
- MEP and MkP (wild-type mice; 14 days of daily o.g., FIG. 51): increases megakaryocyte erythroid progenitors (MEP) and megakaryocytic progenitors (MkP)
- granulocyte monocyte progenitors (GMP) (wild-type mice; 14 days of daily o.g., FIG. 51): does not affect granulocyte monocyte progenitors (GMP)
- % change in body weights (wild-type mice; o.g., steady state, FIG. 53): mildly increases body weights
